According to patent US20240158446A1, “CYCLIC COMPOUND HAVING SELECTIVE INHIBITORY ACTION ON KRAS OVER HRAS AND NRAS” (CHUGAI SEIYAKU KABUSHIKI KAISHA, priority 2021, published 2024):
Like-named read-outs stand apart in the source and are kept apart here. *1 amine or outer side, *2 acyl side, *3 side chain or, on linkers, in order; H or OH if unused. Where a SMILES comes first, the peptide text is derived from it. Bridges are numbered along the chain shown (N, C = ends). [ ]: non-standard residue; d: D form. The star is where a group is joined. hPhe(3-Cl-4-CF3) = N[C@@H](CCc1ccc(C(F)(F)F)c(Cl)c1)C(=O)O; NPrPhe(4-CF3) = CCCN[C@@H](Cc1ccc(C(F)(F)F)cc1)C(=O)O; X10 = C=CCN([C@@H](Cc1ccc(C)cc1)C(=O)[*:2])[*:1]; NMeGly(cPent) = CN[C@H](C(=O)O)C1CCCC1; Hyp = O=C(O)[C@@H]1C[C@@H](O)CN1; NMeD = CN[C@@H](CC(=O)O)C(=O)O; NMeL = CN[C@@H](CC(C)C)C(=O)O; Azetidin(1-yl) = C1CN(*)C1; Morpholide = C1CN(*)CCO1; NMeA = CN[C@@H](C)C(=O)O; Ac5c = NC1(C(=O)O)CCCC1; Aze = O=C(O)[C@@H]1CCN1; Ac4c = NC1(C(=O)O)CCC1; NEtG = CCNCC(=O)O; Sar = CNCC(=O)O

Key:
[1] = biological target: GDP-bound HRAS wild-type protein (Homo sapiens, UniProt P01112); test: Binding to HRAS by surface plasmon resonance (SPR), Single Cycle Kinetics; settings: for HRAS/KRAS (ratio of KD value for HRAS to KD value for KRAS) / HRAS/KRAS (ratio of KD value with respect to HRAS to KD value with respect to KRAS): SPR, GDP-bound HRAS wild-type protein vs GDP-bound KRAS wild-type protein; for HRAS/KRAS (ratio of KD value with respect to GDP-bound HRAS wild-type protein to KD value with respect to KRAS): SPR KD ratio HRAS/KRAS, class symbols
[2] = biological target: GDP-bound KRAS wild-type protein (Homo sapiens, UniProt P01116); test: Binding to KRAS by surface plasmon resonance (SPR), Single Cycle Kinetics; settings: GDP-bound KRAS wild-type protein, read-out: KRAS KD
[3] = biological target: GDP-bound NRAS wild-type protein (Homo sapiens, UniProt P01111); test: Binding to NRAS by surface plasmon resonance (SPR), Single Cycle Kinetics; settings: for NRAS/KRAS (ratio of KD value for NRAS to KD value for KRAS) / NRAS/KRAS (ratio of KD value with respect to NRAS to KD value with respect to KRAS): SPR, GDP-bound NRAS wild-type protein vs GDP-bound KRAS wild-type protein; for NRAS/KRAS (ratio of KD value with respect to GDP-bound NRAS wild-type protein to KD value with respect to KRAS): SPR KD ratio NRAS/KRAS, class symbols
[4] = SPR Single Cycle Kinetics, 1:1 binding model

GDP-bound HRAS wild-type protein, sequence (P01112 whole entry): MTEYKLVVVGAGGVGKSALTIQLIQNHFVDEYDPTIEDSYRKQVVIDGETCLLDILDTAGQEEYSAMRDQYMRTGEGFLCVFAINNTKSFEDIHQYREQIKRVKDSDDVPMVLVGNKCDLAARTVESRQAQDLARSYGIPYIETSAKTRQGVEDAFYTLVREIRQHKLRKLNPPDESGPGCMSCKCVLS
GDP-bound KRAS wild-type protein, sequence (P01116 whole entry): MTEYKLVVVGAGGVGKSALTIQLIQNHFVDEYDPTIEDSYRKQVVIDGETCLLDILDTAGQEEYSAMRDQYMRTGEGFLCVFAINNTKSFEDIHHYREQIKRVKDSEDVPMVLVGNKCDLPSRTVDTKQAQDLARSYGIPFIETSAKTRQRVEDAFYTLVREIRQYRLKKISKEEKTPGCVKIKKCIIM
GDP-bound NRAS wild-type protein, sequence (P01111 whole entry): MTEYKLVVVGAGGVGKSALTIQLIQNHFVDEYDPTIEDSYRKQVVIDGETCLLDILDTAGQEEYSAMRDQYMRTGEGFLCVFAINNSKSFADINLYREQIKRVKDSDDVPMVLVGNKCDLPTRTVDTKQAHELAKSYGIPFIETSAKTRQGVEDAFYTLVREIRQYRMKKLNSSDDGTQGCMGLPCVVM

Structure (SMILES) | HRAS/KRAS (ratio of KD value for HRAS to KD value for KRAS) [1] | Kd ([2]; SPR, Single Cycle Kinetics) | NRAS/KRAS (ratio of KD value for NRAS to KD value for KRAS) [3] | HRAS/KRAS (ratio of KD value with respect to GDP-bound HRAS wild-type protein to KD value with respect to KRAS) [1] | Kd [2, 4] | NRAS/KRAS (ratio of KD value with respect to GDP-bound NRAS wild-type protein to KD value with respect to KRAS) [3] | HRAS/KRAS (ratio of KD value with respect to HRAS to KD value with respect to KRAS) [1] | NRAS/KRAS (ratio of KD value with respect to NRAS to KD value with respect to KRAS) [3]
CCC[C@H]1C(=O)N[C@@H]([C@@H](C)CC)C(=O)N(C)CC(=O)N(C)[C@H]2C/C=C\CCN(C2=O)[C@@H](Cc2ccc(C)cc2)C(=O)N(C)CC(=O)N[C@@H](CCc2ccc(Cl)c(Cl)c2)C(=O)N2C[C@H](OCC)C[C@H]2C(=O)NC2(CC(C)(C)C2)C(=O)N(C)[C@@H](C(CC)CC)C(=O)N(C)[C@H](C(=O)N(C)C)CC(=O)N1C [PP2184] | A (a compound having 10 or more and less than 20 is denoted as A) | 0.7 nM | AA (a compound having 20 or more is denoted as AA) | – | – | – | – | –
CCC(CC)[C@H]1C(=O)N(C)[C@H](C(=O)N(C)C)CC(=O)N(C)[C@H]2CCC/C=C/c3ccc(cc3)C[C@@H](C(=O)N(C)CC(=O)N[C@@H](CCc3ccc(Cl)c(Cl)c3)C(=O)N3CCC[C@H]3C(=O)NC3(CC(C)(C)C3)C(=O)N1C)N1CC/C=C\C[C@@H](C1=O)N(C)C(=O)CN(C)C(=O)[C@H]([C@@H](C)CC)NC2=O [PP2603] | – | – | – | A (a compound having 10 or more and less than 20 is denoted as A) | 0.44 nM | AA (a compound having 20 or more is denoted as AA) | – | –
CCCN1C(=O)[C@@H]2CCN2C(=O)CN(C)C(=O)[C@H]([C@@H](C)CC)NC(=O)[C@H](CC(C)C)N(C)C(=O)C[C@@H](C(=O)N2CCOCC2)NC(=O)[C@H](C2CCCC2)N(C)C(=O)C2(CCC2)NC(=O)[C@@H]2C[C@@H](OCC)CN2C(=O)[C@H](CCc2ccc(C(F)(F)F)c(Cl)c2)NC(=O)CN(C)C(=O)[C@@H]1Cc1ccc(C(F)(F)F)cc1 [PP0354] ([NMeL]I[Sar][Aze][NPrPhe(4-CF3)][Sar][hPhe(3-Cl-4-CF3)][Hyp](Et)[Ac4c][NMeGly(cPent)]D-Morpholide; lactam N-11) | B (a compound having 3 or more and less than 10 is denoted as B) | – | C (A compound having a KD ratio of 0.1 or more and less than 3 is denoted as C) | – | 0.44 nM | – | – | –
CCO[C@@H]1C[C@H]2C(=O)NC3(CCC3)C(=O)N(C)[C@@H](C3CCCC3)C(=O)N(C)[C@H](C(=O)N(C)C)CC(=O)N(C)[C@H]3CCCCCc4ccc(cc4)C[C@@H](C(=O)N(C)CC(=O)N[C@@H](CCc4cc(F)c(C(F)(F)F)c(F)c4)C(=O)N2C1)N1CC/C=C\C[C@@H](C1=O)N(C)C(=O)CN(C)C(=O)[C@H]([C@@H](C)CC)NC3=O [PP2261] | A (a compound having 10 or more and less than 20 is denoted as A) | 0.18 nM | A (a compound having 10 or more and less than 20 is denoted as A) | – | – | – | – | –
CCCN1C(=O)CN(C)C(=O)[C@@H]2CCN2C(=O)[C@H]([C@@H](C)CC)NC(=O)[C@H](CC(C)C)N(C)C(=O)C[C@@H](C(=O)N2CCOCC2)NC(=O)[C@H](C2CCCC2)N(C)C(=O)C2(CCCC2)NC(=O)[C@@H]2CCCN2C(=O)[C@H](CCc2ccc(C(F)(F)F)c(Cl)c2)NC(=O)CN(C)C(=O)[C@@H]1Cc1ccc(C(F)(F)F)cc1 [PP0337] ([NMeL]I[Aze][Sar][NPrPhe(4-CF3)][Sar][hPhe(3-Cl-4-CF3)]P[Ac5c][NMeGly(cPent)]D-Morpholide; lactam N-11) | B (a compound having 3 or more and less than 10 is denoted as B) | – | B (a compound having 3 or more and less than 10 is denoted as B) | – | 2.5 nM | – | – | –
CCCN1C(=O)[C@@H]2CCN2C(=O)[C@H](C)N(C)C(=O)[C@H]([C@@H](C)CC)NC(=O)[C@H](CC(C)C)N(C)C(=O)C[C@@H](C(=O)N2CCC2)N(C)C(=O)[C@H](C2CCCC2)N(C)C(=O)C2(CCCC2)NC(=O)[C@@H]2CCCN2C(=O)[C@H](CCc2ccc(C(F)(F)F)c(Cl)c2)NC(=O)CN(C)C(=O)[C@@H]1Cc1ccc(C(F)(F)F)cc1 [PP0181] ([NMeL]I[NMeA][Aze][NPrPhe(4-CF3)][Sar][hPhe(3-Cl-4-CF3)]P[Ac5c][NMeGly(cPent)][NMeD]-{Azetidin(1-yl)}; lactam N-11) | B (a compound having 3 or more and less than 10 is denoted as B) | – | C (A compound having a KD ratio of 0.1 or more and less than 3 is denoted as C) | – | 0.081 nM | – | – | –
CCCN1C(=O)CN(C)C(=O)CN(CC)C(=O)[C@H]([C@@H](C)CC)NC(=O)[C@H](CC(C)C)N(C)C(=O)C[C@@H](C(=O)N(C)C)NC(=O)[C@H](C2CCCC2)N(C)C(=O)C2(CCC2)NC(=O)[C@@H]2CCCN2C(=O)[C@H](CCc2ccc(C(F)(F)F)c(Cl)c2)NC(=O)CN(C)C(=O)[C@@H]1Cc1ccc(C(F)(F)F)cc1 [PP0368] ([NMeL]I[NEtG][Sar][NPrPhe(4-CF3)][Sar][hPhe(3-Cl-4-CF3)]P[Ac4c][NMeGly(cPent)]D-NMe2; lactam N-11) | B (a compound having 3 or more and less than 10 is denoted as B) | – | B (a compound having 3 or more and less than 10 is denoted as B) | – | 1.7 nM | – | – | –
CCC[C@H]1C(=O)N[C@@H]([C@@H](C)CC)C(=O)N(C)CC(=O)N(C)[C@H]2C/C=C\CCN(C2=O)[C@@H](Cc2ccc(C)cc2)C(=O)N(C)CC(=O)N[C@@H](CCc2cc(F)c(C(F)F)c(F)c2)C(=O)N2C[C@H](OCC)C[C@H]2C(=O)NC2(CC(C)(C)C2)C(=O)N(C)[C@@H](C2CCCC2)C(=O)N(C)[C@H](C(=O)N(C)C)CC(=O)N1C [PP2782] | – | – | – | A (a compound having 10 or more and less than 20 is denoted as A) | 0.49 nM | A (a compound having 10 or more and less than 20 is denoted as A) | – | –
C=CCN1C(=O)CN(C)C(=O)CN(C)C(=O)[C@H]([C@@H](C)CC)NC(=O)[C@H](CC(C)C)N(C)C(=O)C[C@@H](C(=O)N2CCOCC2)N(C)C(=O)[C@H](C2CCCC2)N(C)C(=O)C2(CCCC2)NC(=O)[C@@H]2CCCN2C(=O)[C@H](CCc2ccc(C(F)(F)F)c(Cl)c2)NC(=O)CN(C)C(=O)[C@@H]1Cc1ccc(C)cc1 [PP0100] ([NMeL]I[Sar][Sar][X10][Sar][hPhe(3-Cl-4-CF3)]P[Ac5c][NMeGly(cPent)][NMeD]-Morpholide; lactam N-11) | C (A compound having a KD ratio of 0.1 or more and less than 3 is denoted as C) | – | B (a compound having 3 or more and less than 10 is denoted as B) | – | 0.19 nM | – | – | –
CC[C@H](C)[C@@H]1NC(=O)[C@H](CC(C)C)N(C)C(=O)C[C@@H](C(=O)N2CCOCC2)NC(=O)[C@H](C2CCCC2)N(C)C(=O)C2(CCCC2)NC(=O)[C@@H]2CCCN2C(=O)[C@H](CCc2cc(F)c(C(F)(F)F)c(F)c2)NC(=O)CN(C)C(=O)[C@H](Cc2ccc(C(F)(F)F)cc2)N2CCCCC[C@@H](C2=O)N(C)C(=O)CN(C)C1=O [PP0479] | – | – | – | – | 29 nM | – | B (a compound having 3 or more and less than 10 is denoted as B) | B (a compound having 3 or more and less than 10 is denoted as B)
CCC[C@@H]1C[C@H]2C(=O)NC3(CCC3)C(=O)N(C)[C@@H](C3CCCC3)C(=O)N(C)[C@H](C(=O)N(C)C)CC(=O)N(C)[C@@H](CC(C)C)C(=O)N[C@@H]([C@@H](C)CC)C(=O)N(C)CC(=O)N(C)[C@H]3C/C=C\CCN(C3=O)[C@@H](Cc3ccc(C)cc3)C(=O)N(C)CC(=O)N[C@@H](CCc3cc(F)c(C(F)(F)F)c(F)c3)C(=O)N2C1 [PP2231] | B (a compound having 3 or more and less than 10 is denoted as B) | 0.18 nM | A (a compound having 10 or more and less than 20 is denoted as A) | – | – | – | – | –
CCO[C@@H]1C[C@H]2C(=O)NC3(CCC3)C(=O)N(C)[C@@H](C3CCCC3)C(=O)N(C)[C@H](C(=O)N(C)C)CC(=O)N(C)[C@@H](COC)C(=O)N[C@@H]([C@@H](C)CC)C(=O)N(C)CC(=O)N(C)[C@H]3CCCCN(C3=O)[C@@H](Cc3ccc(C(F)(F)F)cc3)C(=O)N(C)CC(=O)N[C@@H](CCc3cc(F)c(C(F)(F)F)c(F)c3)C(=O)N2C1 [PP0704] | – | – | – | – | 0.011 nM | – | C (A compound having a KD ratio of 0.1 or more and less than 3 is denoted as C) | C (A compound having a KD ratio of 0.1 or more and less than 3 is denoted as C)
CCO[C@@H]1C[C@H]2C(=O)NC3(CC(C)(C)C3)C(=O)N(C)[C@@H](C(CC)CC)C(=O)N(C)[C@H](C(=O)N3CCCC3)CC(=O)N(C)[C@@H](C)C(=O)N[C@@H]([C@@H](C)CC)C(=O)N(C)CC(=O)N(C)[C@H]3C/C=C\CCN(C3=O)[C@@H](Cc3ccc(C)cc3)C(=O)N(C)CC(=O)N[C@@H](CCc3ccc(C(F)(F)F)c(OC)c3)C(=O)N2C1 [PP2169] | A (a compound having 10 or more and less than 20 is denoted as A) | 0.63 nM | AA (a compound having 20 or more is denoted as AA) | – | – | – | – | –
